Patent US6331565A, “Dicaffeoylquinic acid for treating hepatitis B and the diseases associated with retrovirus, and the new caffeoylquinic acid derivatives” (Institute of Radiation Medicine Academy of Military Medical …, priority 1996, dated 2001)
Where two headings read alike, the source gives them in different places.

Legend:
[1] = system: HBeAg; test: microbe, parasite or virus in culture; format: cell-based, HBV; conditions: ACV, concentration not given
Protocol: (§1) The cultures were passenged by trypsinization every 4 days.
(§2) HBsAg and HBeAg in the culture medium were determined according to the protocol respectively. The culture medium (200 μl) was absorbed on beads containing antibody to HBsAg/HBeAg in the presence of the conjugate. After overnight incubation, the beads were washed 6 times with […] PBS containing 0.05% Tween-80 and incubated with 200 μl of [^125 I] anti-HBs(Hbe) overnight. The beads were washed 6 times as above. The amounts HBsAg/HBeAg as measure of cpm of [^125 I] labeled immunocomplex was counted on γ-counter.

[2] = system: HBsAg; test: microbe, parasite or virus in culture; format: cell-based, HBV; conditions: ACV, concentration not given
Protocol: as §1, §2

[3] = system: DHBV; test: anti-DHBV test in ducks (serum DHBV DNA dot blot); format: in vivo, DHBV in Peking (Beijing) ducks; conditions: for DHBV DNA, grayness of the dot: 50 mg/kg, X ± SD, n = 7
Protocol: One-day-old ducklings were infected with a 200 μl intravenous injection of DHBV-positive serum containing 10^11 viral genome equivalents per milliliter. Treatment began when ducklings were 7 days old. A total 89 seven-day-old viraemic ducks were distributed at random into five groups. […] Post-treatment follow-up was carried over a period of 5 days. Blood samples were obtained repectively from the leg vein of all ducks and stored at -70° C. after serum separation, prior to treatment, weekly during the treatment, and for 5 days after cessation of treatment. They were screened for presence of DHBV DNA by dot blot hybridization.
DHBV DNA in serum was analyzed by molecular hybridization using full length DHBV DNA clones in PB325. The DHBV DNA insert was purified by agarose gel electrophoresis after digestion with EcoRI. The DHBV DNA was radiolabeled with α^32 P-dCTP random oligopriming with Klenow fragment. Dot blot hybridization was carried out by the method of Scotto et al. Briefly, an aliquot (200 μl) serum was spotted onto a nylon membrane (Hybond-N, Amersham International, England) in dot blot manifold and denatured with 0.5 M NaOH--NaCl at room temperature for 30 min. Each spotted sample was neutralized in 1M Tris.HCl-1.5M NaCl (pH8.0). The DNA on the membrane was fixed by heating at 80° C. for 2 h, and prehybridization at 37° C. overnight in 50% formamide, 5×Denhardt's, 6×SSC,[…], 0.5% SDS and 10 mg/ml of calf thymus DNA. Hybridization was initiated by adding DHBV [^32 P] DNA probes at 10^6 cpm/ml at the same prehybridization conditions overnight. The membrane was washed in 3×SSC-0.1% SDS at room temperature, 42° C. and 65° C. for 10 min respectively. After hybridization the membranes were air-dried and exposed for periods of up to 14 days at -70° C. with Kodak film with an enhancer screen. The amount of viral DNA were assayed by both densitometry and image analysis of autoradiographic membranes.

[4] = system: lymphocyte proliferation induced by Con A; conditions: 50 mg/kg; for RPI: Normal = 100
Protocol: mice. Five-wk-old female C57BL/6 mice were used throughout the experiments. All mice were housed in sterile cages in a room supplied with filtrated air. They were given pelleted food and chlorinated water ad libitum.
Infection with LP-BM5 MuLV. Cell-free supernatants of LP-BM5 MULV were prepared by cocultivating G6 SC-1 clones with normal SC-1 cells for 5 days. Mice were inoculated intraperitoneally with 150 μl of stock solution containing 10^3,4×C plaque-forming units and 10^2,3 Mink-cell focks-forming units per […].
Then, the spleens were collected. Cell suspensions were prepared by repeated passage of whole spleen through a pipette, the capsule and debris were allowed to settle, and the supernatants containing cells were collected and washed twice in PBS. […] Incubation continued for 16 hr, then cells were collected on filter that was determined by a scintillation counter.

[5] = biological target: T1, HBV DNA polymerase (Hepatitis B virus genotype D subtype ayw, UniProt P03156); test: HBV DNA polymerase assay; format: biochemical
T1 construct: HBV DNA polymerase in viral particles; host or cells: viral particles
T1 sequence (P03156 whole entry): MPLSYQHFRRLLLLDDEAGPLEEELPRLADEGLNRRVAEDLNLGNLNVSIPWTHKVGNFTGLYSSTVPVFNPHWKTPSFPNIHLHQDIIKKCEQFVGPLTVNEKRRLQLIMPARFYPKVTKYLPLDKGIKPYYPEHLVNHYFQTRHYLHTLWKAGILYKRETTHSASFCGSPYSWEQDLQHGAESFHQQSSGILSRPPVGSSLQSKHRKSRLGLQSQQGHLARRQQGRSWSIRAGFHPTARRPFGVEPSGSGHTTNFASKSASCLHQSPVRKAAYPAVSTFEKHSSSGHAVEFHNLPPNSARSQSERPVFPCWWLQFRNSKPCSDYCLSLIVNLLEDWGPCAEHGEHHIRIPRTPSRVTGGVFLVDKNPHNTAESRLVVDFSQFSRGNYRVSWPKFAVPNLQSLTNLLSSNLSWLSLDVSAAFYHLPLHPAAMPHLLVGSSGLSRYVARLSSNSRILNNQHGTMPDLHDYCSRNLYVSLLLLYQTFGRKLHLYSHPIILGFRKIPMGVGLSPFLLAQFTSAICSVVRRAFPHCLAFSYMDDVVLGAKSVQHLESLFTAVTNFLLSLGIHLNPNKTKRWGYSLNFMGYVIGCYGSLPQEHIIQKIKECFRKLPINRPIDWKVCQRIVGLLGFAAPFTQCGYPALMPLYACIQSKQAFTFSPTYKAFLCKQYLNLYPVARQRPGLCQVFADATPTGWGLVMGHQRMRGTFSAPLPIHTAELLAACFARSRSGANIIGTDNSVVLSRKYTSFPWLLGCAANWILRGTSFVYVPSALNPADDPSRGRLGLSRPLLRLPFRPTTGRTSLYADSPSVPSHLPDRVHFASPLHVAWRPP
Protocol: Assay was performed as described by Hantz (Antiviral Res 4(1984) 187-199) with minor modification. The Reaction mixture consisted of HBV DNA polymerase in viral particles in 200 mmol.l^-1 of Tris-HCl pH 7.6, 200 mmol.l^-1 of NH4 Cl. 50 mmol.l^-1 of MgCl2, 10 mmol.l^-1 of 2-mercaptoethanol, 2% Nonidet P-40 and 300 μmol.l^-1 concentrations of deoxynucleotide triphosphates except for [^3 H]dTTP, which was included in the assay at 20 μci.ml^-1. […] The mixtures were incubated at 37° C. for 4 h prior to spotting on Whatman No.3 filter paper which was washed 4 times with cold 5% trichloroacitic acid, then with ethanol. The HBV DNA polymerase activity as measure of the incorperation of the radionucleotide into the viral DNA was counted in a Recbeta (LKB)scintilation counter.

Nc1nc2c(ncn2COCCO)c(=O)[nH]1 [ACV, acyclovir, reference compound]
HBeAg Inhibit rate (%) ([1]; day 4): 26.22 ± 1.17% | HBeAg cpm ([1]; day 4): 3910.9 ± 57.6 cpm | HBeAg Inhibit rate (%) ([1]; day 8): 26.75 ± 1.21% | HBeAg cpm ([1]; day 8): 6101.9 ± 96.17 cpm | HBeAg Inhibit rate (%) ([1]; day 12): 3.71 ± 1.36% | HBeAg cpm ([1]; day 12): 8194.1 ± 111.5 cpm | HBsAg Inhibit rate (%) ([2]; day 4): 48.20% | HBsAg cpm ([2]; day 4): 710.1 ± 65.7 cpm | HBsAg Inhibit rate (%) ([2]; day 8): 29.54 ± 5.15% | HBsAg cpm ([2]; day 8): 870.1 ± 51.1 cpm | HBsAg Inhibit rate (%) ([2]; day 12): 23.22% | HBsAg cpm ([2]; day 12): 622.5 ± 58.8 cpm | DHBV DNA, grayness of the dot ([3]; P5 (day 5 after withdrawal)): 9.0 ± 8.6 K Grayness | DHBV DNA, grayness of the dot ([3]; day 0 (before treatment), oral): 6.3 ± 4.2 K Grayness | DHBV DNA, grayness of the dot ([3]; day 7, oral): 0.1 ± 0.3 K Grayness | DHBV DNA, grayness of the dot ([3]; day 14, oral): 0.0 ± 0 K Grayness | viraemia returned to a level higher than that of pretreatment by ([3]; day 5 after cessation of treatment): 43% | DHBV DNA from the sera ([3]; during the 14 days of therapy, all 7 treated birds): substantial decrease of DHBV DNA from the sera

Cc1cn([C@H]2C[C@H](N=[N+]=[N-])[C@@H](CO)O2)c(=O)[nH]c1=O [AZT]
cpm ([4]; Con A (5 μg/ml)): 53287 ± 2043 cpm | RPI ([4]; Con A (5 μg/ml)): 95.10 | cpm ([4]; Con A ([…])): 33212 ± 2609 cpm | RPI ([4]; Con A ([…])): 93.21

O=C(O)P(=O)(O)O [PFA, reference compound]
IC50 [5]: 184 µM | inhibitory effect on HBV DNAp [5]: dose-dependent inhibitory effect | cpm ([5]; 1 μg/ml): 10267 ± 77 cpm | cpm ([5]; 10 μg/ml): 5495 ± 218 cpm | cpm ([5]; 100 μg/ml): 3065 ± 67 cpm | cpm ([5]; 1000 μg/ml): 2377 ± 329 cpm | inhibition at 1 µg/mL ([5]; read-out: Inhibitory rate (%)): -5.2 ± 15.3% | inhibition at 10 µg/mL ([5]; read-out: Inhibitory rate (%)): 44.4 ± 2.3% | inhibition at 100 µg/mL ([5]; read-out: Inhibitory rate (%)): 69.7 ± 0.7% | inhibition at 1000 µg/mL ([5]; read-out: Inhibitory rate (%)): 76.8 ± 3.4%
